According to publication PMC11181081 (Proceedings of the National Academy of Sciences of the …, 2024):

How the values were obtained:
[1] = test system: primary female mouse myotubes; test: Primary myotube size by high-content imaging; format: cell-based; conditions: 50 pM, 5 d
Greb1 expression = test: Greb1 qPCR in primary myotubes; format: cell-based, mouse; conditions: steroid-free conditions, 24 h
MCF-7 WT cells = test: Cell proliferation assay, MCF-7 WT; conditions: MCF-7 with ER-WT, charcoal-stripped FBS, 5 d
[2] = test system: ER-regulated genes PGR, GREB1, TFF1/pS2; test: qPCR of ER target genes in MCF-7 cells; format: cell-based; conditions: MCF-7 in normal FBS-containing media, ~1 pM E2

C[C@]12CC[C@@H]3c4ccc(O)cc4CC[C@H]3[C@@H]1CC[C@@H]2O [Compound E2, 17β-estradiol]
Myotube diameter / tube area (in words) [1]: maintained primary myotube diameter
Greb1 expression dose response (in words) (Greb1 expression): biphasic with an inflection point below the ligand Kd
Effect on proliferation (activity profile, in words) (MCF-7 WT cells): induced cell growth at doses 2 logs below the Kd
Gene expression profile in full media (in words) [2]: less induction of gene expression
